Reference: ChEMBL document CHEMBL4130364, “4-Aminoquinoline-chalcone/-N-acetylpyrazoline conjugates: Synthesis and antiplasmodial evaluation” (Eur J Med Chem, 2017)

Tests used:
Plasmodium falciparum = assay: Antiplasmodial activity against chloroquine-resistant Plasmodium falciparum W2 after 48 hrs by YOYO-1 dye-based flow cytometry; format: functional, organism-based; settings: W2, 48 h
HeLa = assay: Cytotoxicity against human HeLa cells assessed as reduction in cell viability after 24 hrs by trypan blue-based hemacytometer counting analysis
[1] = Selectivity index, ratio of IC50 for human HeLa cells to IC50 for chloroquine-resistant Plasmodium falciparum W2; format: toxicity; settings: read-out: Ratio IC50

Row | Compound | IC50 (Plasmodium falciparum) | IC50 (HeLa) | selectivity ratio [1]
1 | COc1cc(C2=NN(C(C)=O)C(c3ccccc3)C2)ccc1OCc1cn(CCNc2ccnc3cc(Cl)ccc23)nn1 (stereo unspecified) | 286 nM |  | 
2 | COc1ccc(C2CC(c3ccc(OCc4cn(CCCNc5ccnc6cc(Cl)ccc56)nn4)cc3)=NN2C(C)=O)cc1OC (stereo unspecified) | 504 nM |  | 
3 | COc1ccc(/C=C/C(=O)c2ccc(OCc3cn(CCCNc4ccnc5cc(Cl)ccc45)nn3)cc2)cc1OC | > 10000 nM |  | 
4 | COc1ccc(C2CC(c3ccc(OCc4cn(CCNc5ccnc6cc(Cl)ccc56)nn4)c(OC)c3)=NN2C(C)=O)cc1OC (stereo unspecified) | 53.7 nM | 42700 nM | 795
5 | COc1cc(C2=NN(C(C)=O)C(c3ccccc3)C2)ccc1OCc1cn(CCCNc2ccnc3cc(Cl)ccc23)nn1 (stereo unspecified) | 77 nM | 46100 nM | 598
6 | COc1cc(C(=O)/C=C/c2cc(OC)c(OC)c(OC)c2)ccc1OCc1cn(CCCNc2ccnc3cc(Cl)ccc23)nn1 | 831 nM |  | 
7 | COc1ccc(/C=C/C(=O)c2ccc(OCc3cn(CCNc4ccnc5cc(Cl)ccc45)nn3)cc2)cc1 | 114 nM | 35600 nM | 311
8 | COc1ccc(C2CC(c3ccc(OCc4cn(CCCNc5ccnc6cc(Cl)ccc56)nn4)c(OC)c3)=NN2C(C)=O)cc1 (stereo unspecified) | 1570 nM |  | 
9 | COc1ccc(/C=C/C(=O)c2ccc(OCc3cn(CCCNc4ccnc5cc(Cl)ccc45)nn3)c(OC)c2)cc1OC | 337 nM |  | 
10 | COc1cc(/C=C/C(=O)c2ccc(OCc3cn(CCNc4ccnc5cc(Cl)ccc45)nn3)cc2)cc(OC)c1OC | 175 nM |  | 
11 | O=C(/C=C/c1ccccc1)c1ccc(OCc2cn(CCCNc3ccnc4cc(Cl)ccc34)nn2)cc1 | > 10000 nM |  | 
12 | COc1cc(/C=C/C(=O)c2ccc(OCc3cn(CCCNc4ccnc5cc(Cl)ccc45)nn3)cc2)cc(OC)c1OC | 5280 nM |  | 
13 | COc1ccc(C2CC(c3ccc(OCc4cn(CCNc5ccnc6cc(Cl)ccc56)nn4)cc3)=NN2C(C)=O)cc1 (stereo unspecified) | 131 nM | 29200 nM | 223
14 | COc1cc(C2=NN(C(C)=O)C(c3cc(OC)c(OC)c(OC)c3)C2)ccc1OCc1cn(CCCNc2ccnc3cc(Cl)ccc23)nn1 (stereo unspecified) | 1740 nM |  | 
15 | COc1cc(C2=NN(C(C)=O)C(c3cc(OC)c(OC)c(OC)c3)C2)ccc1OCc1cn(CCNc2ccnc3cc(Cl)ccc23)nn1 (stereo unspecified) | 139 nM |  | 
16 | COc1ccc(/C=C/C(=O)c2ccc(OCc3cn(CCNc4ccnc5cc(Cl)ccc45)nn3)c(OC)c2)cc1OC | 830 nM |  | 
17 | COc1ccc(/C=C/C(=O)c2ccc(OCc3cn(CCCNc4ccnc5cc(Cl)ccc45)nn3)cc2)cc1 | > 10000 nM |  | 

Row | Compound | IC50 (Plasmodium falciparum) | IC50 (HeLa) | selectivity ratio [1]
18 | COc1cc(C2CC(c3ccc(OCc4cn(CCNc5ccnc6cc(Cl)ccc56)nn4)cc3)=NN2C(C)=O)cc(OC)c1OC (stereo unspecified) | 426 nM |  | 
19 | COc1ccc(C2CC(c3ccc(OCc4cn(CCCNc5ccnc6cc(Cl)ccc56)nn4)cc3)=NN2C(C)=O)cc1 (stereo unspecified) | 498 nM |  | 
20 | CC(=O)N1N=C(c2ccc(OCc3cn(CCNc4ccnc5cc(Cl)ccc45)nn3)cc2)CC1c1ccccc1 (stereo unspecified) | 237 nM |  | 
21 | COc1ccc(/C=C/C(=O)c2ccc(OCc3cn(CCNc4ccnc5cc(Cl)ccc45)nn3)cc2)cc1OC | 141 nM | 12700 nM | 90
22 | COc1ccc(C2CC(c3ccc(OCc4cn(CCCNc5ccnc6cc(Cl)ccc56)nn4)c(OC)c3)=NN2C(C)=O)cc1OC (stereo unspecified) | 1680 nM |  | 
23 | COc1ccc(/C=C/C(=O)c2ccc(OCc3cn(CCCNc4ccnc5cc(Cl)ccc45)nn3)c(OC)c2)cc1 | > 10000 nM |  | 
24 | COc1cc(C(=O)/C=C/c2ccccc2)ccc1OCc1cn(CCNc2ccnc3cc(Cl)ccc23)nn1 | 355 nM |  | 
25 | COc1cc(C(=O)/C=C/c2cc(OC)c(OC)c(OC)c2)ccc1OCc1cn(CCNc2ccnc3cc(Cl)ccc23)nn1 | 355 nM |  | 
26 | COc1ccc(C2CC(c3ccc(OCc4cn(CCNc5ccnc6cc(Cl)ccc56)nn4)c(OC)c3)=NN2C(C)=O)cc1 (stereo unspecified) | 58.7 nM | 32800 nM | 558
27 | COc1cc(C2CC(c3ccc(OCc4cn(CCCNc5ccnc6cc(Cl)ccc56)nn4)cc3)=NN2C(C)=O)cc(OC)c1OC (stereo unspecified) | 2420 nM |  | 
28 | COc1ccc(C2CC(c3ccc(OCc4cn(CCNc5ccnc6cc(Cl)ccc56)nn4)cc3)=NN2C(C)=O)cc1OC (stereo unspecified) | 152 nM |  | 
29 | O=C(/C=C/c1ccccc1)c1ccc(OCc2cn(CCNc3ccnc4cc(Cl)ccc34)nn2)cc1 | 172 nM |  | 
30 | CC(=O)N1N=C(c2ccc(OCc3cn(CCCNc4ccnc5cc(Cl)ccc45)nn3)cc2)CC1c1ccccc1 (stereo unspecified) | 3000 nM |  | 
31 | COc1ccc(/C=C/C(=O)c2ccc(OCc3cn(CCNc4ccnc5cc(Cl)ccc45)nn3)c(OC)c2)cc1 | 1910 nM |  | 
32 | COc1cc(C(=O)/C=C/c2ccccc2)ccc1OCc1cn(CCCNc2ccnc3cc(Cl)ccc23)nn1 | 6960 nM |  | 
33 | C[C@@H]1CC[C@H]2[C@@H](C)C(=O)O[C@@H]3O[C@@]4(C)CC[C@@H]1[C@]32OO4 [ARTEMISININ] | 32.1 nM |  | 
34 | COc1cccc2c1C(=O)c1c(O)c3c(c(O)c1C2=O)C[C@@](O)(C(=O)CO)C[C@@H]3O[C@H]1C[C@H](N)[C@H](O)[C@H](C)O1 [DOXORUBICIN] |  | 8300 nM | 
